Test results as given in publication PMC3266270, “Biochemical Discrimination between Selenium and Sulfur 1: A Single Residue Provides Selenium Specificity to Human Selenocysteine Lyase” (PLoS ONE, 2012).

Tests used:
[1] = molecular target: T1, hSCL (human selenocysteine lyase) (Homo sapiens, UniProt Q96I15); experiment: X-ray crystal structure; format: binding; conditions: P2_12_12_1 crystal, 2.1 Å; pH 6.7; copurified cofactor; active site at homodimer interface
T1 construct: gene SCLY; residues 8-445, N-terminal His6-TEV tag cleaved before assay and crystallization; E. coli BL21(DE3); homodimer
T1 sequence (Q96I15 8-445): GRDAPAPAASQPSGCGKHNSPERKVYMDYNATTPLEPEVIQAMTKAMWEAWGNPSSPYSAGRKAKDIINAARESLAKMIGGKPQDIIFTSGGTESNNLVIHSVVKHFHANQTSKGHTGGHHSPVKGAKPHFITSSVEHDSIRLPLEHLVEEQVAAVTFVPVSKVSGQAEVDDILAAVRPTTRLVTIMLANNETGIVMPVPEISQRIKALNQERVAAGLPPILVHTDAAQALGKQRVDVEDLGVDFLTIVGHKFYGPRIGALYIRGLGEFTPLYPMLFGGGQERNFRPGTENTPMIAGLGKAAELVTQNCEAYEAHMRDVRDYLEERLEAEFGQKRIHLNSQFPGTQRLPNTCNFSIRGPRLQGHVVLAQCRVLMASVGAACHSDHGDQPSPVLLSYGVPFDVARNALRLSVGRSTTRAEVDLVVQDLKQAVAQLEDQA

[2] = molecular target: T1, hSCL (human selenocysteine lyase); experiment: alanine dehydrogenase-coupled detection of product alanine; format: biochemical; conditions: 5 mM seleno-L-cystine reduced in situ by 50 mM DTT (10 mM Sec equivalent), 0.2 mM PLP, pH 8.5, 37 °C, under nitrogen; time course only
[3] = molecular target: the molecule itself; experiment: crystal structure; hSCL with PLP, His-tag cleaved; two crystal forms: P2(1)2(1)2(1), 2.1 A, 100 mM HEPES pH 6.7, 10% PEG6000, one dimer per asymmetric unit; P1, 1.8 A, 50 mM HEPES pH 8.1, 200 mM ammonium nitrate, 25% PEG3350, soaked with 10 mM L-cysteine for 2 h, two dimers per asymmetric unit; crystals grown at 20 C

Cc1ncc(COP(=O)(O)O)c(C=O)c1O [PLP]
X-ray crystal structure [1]: Human SCL homodimer in complex with the co-factor PLP.

N[C@@H](C[SeH])C(=O)O [Sec]
alanine dehydrogenase-coupled detection of product alanine [2]: The activity with Sec observed in the wild-type enzyme was not altered

B1: human selenocysteine lyase (hSCL), residues 8-445 (enzyme, UniProt Q96I15 8-445, looked up)
chain: GRDAPAPAASQPSGCGKHNSPERKVYMDYNATTPLEPEVIQAMTKAMWEAWGNPSSPYSAGRKAKDIINAARESLAKMIGGKPQDIIFTSGGTESNNLVIHSVVKHFHANQTSKGHTGGHHSPVKGAKPHFITSSVEHDSIRLPLEHLVEEQVAAVTFVPVSKVSGQAEVDDILAAVRPTTRLVTIMLANNETGIVMPVPEISQRIKALNQERVAAGLPPILVHTDAAQALGKQRVDVEDLGVDFLTIVGHKFYGPRIGALYIRGLGEFTPLYPMLFGGGQERNFRPGTENTPMIAGLGKAAELVTQNCEAYEAHMRDVRDYLEERLEAEFGQKRIHLNSQFPGTQRLPNTCNFSIRGPRLQGHVVLAQCRVLMASVGAACHSDHGDQPSPVLLSYGVPFDVARNALRLSVGRSTTRAEVDLVVQDLKQAVAQLEDQA
notes: human selenocysteine lyase (hSCL), residues 8-445, cDNA clone from the Mammalian Gene Collection (GenBank BC007891.2), cloned in pNIC-Bsa4; residues 120-132 are disordered; A few vector residues probably remain at the N-terminus after TEV cleavage (surmised; also called human SCL; Sec lyase; source: His-tag removed with TEV protease); not shown: His6, N-terminal, cleaved
stoichiometry N [3]: 2
